The text below walks through data of article PMC9271048, “Probing strigolactone perception mechanisms with rationally designed small-molecule agonists stimulating germination of root parasitic weeds” (Nature Communications, 2022).

Experiment [1] concerns the target T1, ShHTL7 (Striga hermonthica, UniProt A0A0M3PNA2). Kind of experiment: Competitive inhibition of ShHTL7 with Yoshimulactone Green (YLG) as substrate. Type of experiment: biochemical. Here is the method:
Based on the structural feature of the lead compound 2h, we selected three regions to perform further modification (Supplementary Fig. 6), to try to further improve bioactivity. Insertion of a carbonyl group between the bicyclo[2.2.1]hept-5-en-2-yl group and the piperazine ring was detrimental to binding affinity (Supplementary Fig. 6, region A). Removal of an oxygen atom in region B was found unfavorable to binding affinity as well. Therefore, we focused on modifying the benzene ring (region C) for 2h. A series of compounds with different groups at region C was synthesized (Supplementary Scheme 1). […] As SPR just measures the binding ability, another independent assay by using Yoshimulactone Green (YLG) as the fluorescent substrate was performed to determine the half-maximal inhibitory concentration (IC50) of these compounds against ShHTL7[22].
The excitation and emission wavelengths of YLG are 480 and 520 nm, respectively. We used a fluorescence spectrophotometer (CARY Eclipse) to detect the fluorescence intensity change of YLG during the enzymatic hydrolysis assay process. All the testing compounds and YLG were dissolved in DMSO and prepared as stock solutions just before use. […] The changes of fluorescence at 520 nm of each well were recorded every 1 min for 30 min. Using the reaction mixture without adding enzyme and tested compounds as the background control. After subtracting the background hydrolysis, a linear fluorescence increase in 8 min was used for further inspection. The IC50 values were determined via fitting relative inhibition percentages with the varying concentrations of compounds in Microsoft Excel.

Experiment [2] deals with T1, ShHTL7. Kind of experiment: biochemical. Format: binding. As to the method: We used a sensitive, high-throughput Surface plasmon resonance (SPR) method to examine the binding affinities of the 51 candidates to the recombinant ShHTL7 protein, which was immobilized on the CM5 sensor chip. rac-GR24 was used as a positive control.
The interactions of small molecules with recombinant ShHTL7 were evaluated using the Biacore T200 system (GE Healthcare, USA) at 25 °C[47]. The purified ShHTL7 protein was immobilized on a CM5 sensor chip using the standard amine coupling procedure. […] PBS-P (10 mM phosphate buffer, 2.7 mM KCl, 137 mM NaCl, 0.05% Surfactant P20) containing 0.5% DMSO was used as the running buffer. For the screening experiments, candidates with different structures at 50 μM in the running buffer were injected individually at a flow rate of 30 μL min^−1. For binding affinity studies, compounds with different concentrations in running buffer were used. During the experiments, both the contact and dissociation times were set as 1 min. Data analysis was performed using the Biacore Evaluation Software (T200 Version 2.0). The affinity values (KD) were obtained by the kinetics analysis or the steady-state affinity method.

In a further experiment the test system is P. aegyptiaca seeds. As to the kind of experiment: P. aegyptiaca seed germination assay. Format: in vivo, Phelipanche aegyptiaca. More on the design: P. aegyptiaca germination EC50 values, source data average: unit not given here. The conditions noted are these: for P. aegyptiaca germination(%): Supplementary Table 1, compounds tested at 10 μM, means ± SD, n = 3. Here is the method: P. aegyptiaca seeds were harvested from Xinjiang province, China in 2017. The seeds were surface sterilized using 1% NaClO solution for 2 min and then washed with distilled water six times. For seed germination assay, about 20 pieces of glass fiber-filter paper discs (15 mm diameter, Whatman GF/B) were placed separately on two layers of filter papers (9 cm diameter, Whatman) in a Petri dish. Five milliliters of distilled water was added to each Petri dish to wet the papers. Approximately 40–90 sterilized seeds were spread onto each glass fiber-filter paper disc. After the seeds were conditioned in the dark at 25 °C for 4 days[48], glass fiber-filter paper discs were blotted dry on filter papers (9 cm) and transferred to the wells of 24-well cell culture plates. The testing compounds were dissolved in acetone and diluted with H2O (VH2O/Vacetone = 999/1) just before use[49]. rac-GR24 and 1‰ acetone solution were used as positive and negative controls, respectively. One hundred microliters of the test solution was added to each well of the plates, and all treatments were performed in three biological repeats. The plates were sealed and incubated in the dark at 25 °C for a week. The experiments were performed at least three times. The germinated seeds were observed by using an electronic magnifier at ×20 magnification.

The mark [3] stands for this setting: YLG as substrate, text and Fig. 2, read-out: IC50, competitive ShHTL7 inhibition (YLG assay).
Where [4] appears, read: wild-type ShHTL7, average of 3, source data of Fig. 2a,b, Supplementary Figs. 8a, 9a, 20b, read-out: IC50, competitive ShHTL7 inhibition (YLG), source data average.
[5] abbreviates: Supplementary Table 7, binding affinities between ShHTL7 and agonists by SPR, read-out: KD/μM.
The mark [6] stands for this setting: source data of Fig. 2c and Supplementary Fig. 8b, average of 3.
Setting [7] is: YLG used as the substrate, means ± SD, n = 3, read-out: IC50 (Supplementary Table 1).

Where two headings read alike, the source gives them in different places.

T1 sequence (A0A0M3PNA2 entry or part of it): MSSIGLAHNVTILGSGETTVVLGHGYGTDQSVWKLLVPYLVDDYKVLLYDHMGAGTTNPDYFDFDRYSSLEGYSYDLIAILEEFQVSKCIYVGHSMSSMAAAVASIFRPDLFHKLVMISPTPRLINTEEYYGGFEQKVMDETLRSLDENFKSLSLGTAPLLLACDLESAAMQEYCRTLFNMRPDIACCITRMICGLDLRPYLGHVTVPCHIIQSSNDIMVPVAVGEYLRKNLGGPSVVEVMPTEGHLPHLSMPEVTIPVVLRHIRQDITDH

For orientation: IC50 means the point on the concentration scale where inhibition reaches its midpoint. A word on the EC50: it is the concentration at which the effect is half-maximal. Consider `CC1=CC(OC(=O)N2CCN(CC3CC4C=CC3C4)CC2)OC1=O` (stereo not shown) [4c], for which the IC50 on ShHTL7 [1] (setting [3]) is 4.56 ± 0.78 µM; at ShHTL7 [1] (setting [4]), 4.56 µM. For the same compound, the Kd at ShHTL7 [2] (setting [5]) is 13.9 ± 2.6 µM. In addition, the EC50 in the experiment with P. aegyptiaca seeds (in vivo, read-out: EC50, P. aegyptiaca seed germination) amounted to 0.00226 µM. In the experiment on P. aegyptiaca seeds (setting [6]), the “P. aegyptiaca germination EC50 values, source data average” value (from here on “P. aegyptiaca germination EC50 values”) amounted to 8.757.
With `Cc1ccccc1OCC(=O)N1CCN(CC2CC3C=CC2C3)CC1` (stereo not shown) [3m], at ShHTL7 [1] (setting [7]), the half-inhibitory concentration (IC50) was found to be 9.16 ± 1.2 µM. Moreover, in the experiment with P. aegyptiaca seeds, the “P. aegyptiaca germination(%)” value is 29.7%.
In the case of `O=C(COc1ccc([N+](=O)[O-])cc1Cl)N1CCN(CC2CC3C=CC2C3)CC1` (stereo not shown) [3i], the IC50 on ShHTL7 [1] (setting [7]) worked out at 11.6 ± 0.61 µM. For the same compound, in the experiment on P. aegyptiaca seeds, the “P. aegyptiaca germination(%)” value is 33.5%.
`O=C(COc1ccc(Cl)cc1Cl)N1CCN(CC2CC3C=CC2C3)CC1` (stereo not shown) [3j]: the 50% inhibitory concentration (IC50) at ShHTL7 [1] (setting [7]) is 9.22 ± 0.35 µM. Moreover, the “P. aegyptiaca germination(%)” value in the experiment with P. aegyptiaca seeds came out at 54.7%.
For `CS(=O)(=O)c1ccc(OCC(=O)N2CCN(CC3CC4C=CC3C4)CC2)cc1` (stereo not shown) [3q] the same measures were 24.1 ± 6.49 µM and 34.8%.
With `CC1=CC(OC(=O)N2CCN(C(=O)COc3ccc(F)cc3C)CC2)OC1=O` (stereo not shown) [4d], at ShHTL7 [1] (setting [4]), the IC50 turned out to be 3.78 µM. For the same compound, at ShHTL7 [2] (setting [5]), the Kd was 0.82 ± 0.26 µM. The “P. aegyptiaca germination EC50 values” value with P. aegyptiaca seeds (setting [6]) stood at 8.181.
In the case of `Cc1cc(Br)ccc1OCC(=O)N1CCN(CC2CC3C=CC2C3)CC1` (stereo not shown) [3f], the IC50 worked out at 7.45 ± 1.03 µM at ShHTL7 [1] (IC50 (Supplementary Table 1), YLG used as the substrate, means ± SD, n = 3) and 6.11 µM on ShHTL7 [1] (IC50, competitive ShHTL7 inhibition (YLG), source data average, wild-type ShHTL7, average of 3, source data of Fig. 2a,b, Supplementary Figs. 8a, 9a, 20b). Besides, on ShHTL7 [2], the Kd was 0.18 µM. Further, in the experiment on P. aegyptiaca seeds, the “P. aegyptiaca germination(%)” value came out at 8.3%.
Compound `O=C(C(c1ccccc1)c1ccccc1)N1CCN(CC2CC3C=CC2C3)CC1` (stereo not shown) [2d] displayed a Kd on ShHTL7 [2] of 5.22 ± 0.66 µM.
As to `O=C(c1ccco1)N1CCN(CC2CC3C=CC2C3)CC1` (stereo not shown) [2a], at ShHTL7 [2] (recombinant ShHTL7 immobilized on CM5 chip, 25 °C, read-out: KD (SPR)), the Kd was 12.8 ± 0.6 µM.
Take `CC1=CC(OC(=O)N2CCN(C(=O)COc3ccc(Cl)cc3C)CC2)OC1=O` (stereo not shown) [4e]: at ShHTL7 [1] (setting [4]), the IC50 was 2.35 µM. Further, on ShHTL7 [2] (setting [5]), the Kd is 6.33 ± 3.1 µM. The “P. aegyptiaca germination EC50 values” value in the experiment with P. aegyptiaca seeds (setting [6]) worked out at 8.242.
As for `Cc1ccc(CC(=O)N2CCN(CC3CC4C=CC3C4)CC2)cc1` (stereo not shown) [3b], at ShHTL7 [1] (setting [7]), the 50% inhibitory concentration (IC50) is 23.2 ± 1.59 µM. Besides, in the experiment with P. aegyptiaca seeds, the “P. aegyptiaca germination(%)” value is given as 8.9%.
Take `CC1=CC(OC(=O)N2CCN(C(=O)COc3c(F)c(F)c(F)c(F)c3F)CC2)OC1=O` (stereo not shown) [4b]: the IC50 on ShHTL7 [1] (setting [3]) was 3.03 ± 0.58 µM; at ShHTL7 [1] (setting [4]) it was 3.03 µM. The same compound yielded a Kd on ShHTL7 [2] of 2.21 ± 0.42 µM. Moreover, the EC50 in the experiment on P. aegyptiaca seeds (Phelipanche aegyptiaca, read-out: EC50, P. aegyptiaca seed germination) is around 0.0552 µM; in the experiment with P. aegyptiaca seeds (Phelipanche aegyptiaca, source data of Fig. 2c and Supplementary Fig. 8b, average of 3, read-out: P. aegyptiaca germination EC50 values, source data average (converted)), 0.0482 µM.
Take `O=C(COc1ccc(Cl)cc1)N1CCN(CC2CC3C=CC2C3)CC1` (stereo not shown) [3o]: the IC50 at ShHTL7 [1] (setting [7]) amounted to 22 ± 2.43 µM. Further, the “P. aegyptiaca germination(%)” value in the experiment with P. aegyptiaca seeds worked out at 21.4%.
As for `Cc1ccc(CCC(=O)N2CCN(CC3CC4C=CC3C4)CC2)cc1` (stereo not shown) [3r], the IC50 at ShHTL7 [1] (setting [7]) came out at 34.2 ± 6.9 µM. In the experiment on P. aegyptiaca seeds, the “P. aegyptiaca germination(%)” value is reported as 34.2±6.9%.
Regarding `O=C(COc1ccccc1)N1CCN(CC2CC3C=CC2C3)CC1` (stereo not shown) [3l], the half-inhibitory concentration (IC50) at ShHTL7 [1] (setting [7]) came to 18 ± 1.32 µM. Further, in the experiment on P. aegyptiaca seeds, the “P. aegyptiaca germination(%)” value turned out to be 26.3%.
For `O=C(COc1ccc(C(F)(F)F)cc1)N1CCN(CC2CC3C=CC2C3)CC1` (stereo not shown) [3n] the same measures were 12.8 ± 2.97 µM and 47.8%.
